Experimental data reported in patent publication US11167006B2 (Shanghai Tianci Life Science Development Co., Ltd., priority 2016, dated 2021).
Square brackets hold non-standard residues; d marks the D form. Peptide text beside a SMILES is read from it. NMeY = CN[C@@H](Cc1ccc(O)cc1)C(=O)O; NMeF = CN[C@@H](Cc1ccccc1)C(=O)O

What follows are molecules tested on acute pain caused by photothermal therapy in male mice of Kunming strain (assay: Mouse photothermal tail flick analgesia experiment). Conditions: lateral ventricle injection.
Format: in vivo
Procedure: After the drug was injected into the lateral ventricle, intrathecal, subcutaneous, and intraperitoneal, the modulating activity on pain was measured by the photothermal tail flick test in mouse.
In the lateral ventricle administration, the lateral ventricle tube-buried surgery of the mouse should be performed in advance to ensure the accuracy of the drug injection site. A brain stereotaxic instrument was used in the lateral ventricle tube-buried surgery of the mouse. Male mice of Kunming strain, weighing 21±2 g; brain stereotaxic instrument is Jiangwan I. After the mice were anesthetized with sodium pentobarbital (i.p., 80 mg/kg mouse body weight), the hair in the head surgery area of the mouse was cut off and the mouse was placed on the brain stereotactic instrument and fixed. The surgery area was disinfected with iodophor, the scalp was opened along the sagittal suture to reveal the skull and the position of the anterior fontanelle can be found. 3 mm backward and 1 mm left/right from the anterior fontanelle, the upper position of the lateral ventricle can be found. A self-made stainless steel tube (a section of 24-gauge, which is connected to a small section of PE-10 tube) is inserted 3 mm downward according to the above position, which is the lateral ventricle. A section of stainless steel string (28-gauge) is inserted into the above-mentioned steel tube to prevent cerebrospinal fluid spillage and foreign matter infection and block the steel pipe. The steel tube is fixed with medical dental powder and glue, and after solidification, the wound is sutured. After the surgery, the mice were recovered tier 4 days, and the follow-up experiment was started on the 5th day. Surgical instruments, stainless steel tubes, etc. involved in the experiment need to be disinfected before the surgery. The mouse lateral ventricle was injected with 4 μl of the drug each time, and then the steel tube was rinsed with 1 μl of physiological saline.
Spinal cord level administration is performed by intrathecal injection in conscious mice, and the specific procedure is described in the method reported by Hylden and Wilcox (Eur. J. Pharmacol. 1980, 67: 313). A 25 μL microinjector was inserted directly into the subarachnoid space between L5 and L6.
The intraperitoneal administration was directly injected using a 1 mL syringe at an injection volume of 10 μl/g body weight. At the time of injection, the mouse was held by left hand with their abdomen facing up and the head was at low position while the tail was at high position. The side of the midline of the abdomen was taken, the needle hole of the syringe was upward, the needle tip penetrates into the skin in a direction less than 20 degrees, the needle tip was slightly pushed in the direction of the mouse head and sticking abdominal wall, and then punctures into the abdominal cavity in the direction of 45 degrees, and was withdrawn to confirm that it has not been pierced into the blood vessel or the intestine, afterwards the drug solution is slowly pushed out.
Subcutaneous injection was also administered directly using a 1 mL syringe in an injection volume of 10 μl/g body weight. At the time of injection, the neck and tail of the mouse were fixed in the left hand, and the head and body were inclined downward at 45 degrees. The needle hole of the syringe is upward, the needle tip is slowly pierced into the skin on the right side of the back center line at an angle of less than 20 degrees, and the needle tip is lightly picked up to confirm that there is no piercing, afterwards the drug solution is slowly pushed out.
Male mice of Kunming strain were used to detect the effects of drugs on pain perception using a photothermal tail flick instrument. The ambient temperature is controlled at 22±1° C., and the experimental animals are free to eat and drink. The basic tail flick incubation period (3-5 seconds) was determined prior to administration, and mice that were too sensitive or dull were discarded. […]
In the case of CN[C@@H](Cc1ccc(O)cc1)C(=O)N[C@H](C)C(=O)NCC(=O)N[C@@H](Cc1ccccc1)C(=O)N[C@@H](CCC(N)=O)C(=O)N1CCC[C@H]1C(=O)N[C@@H](CCC(N)=O)C(=O)N[C@@H](CCCNC(=N)N)C(=O)N[C@@H](Cc1ccccc1)C(N)=O [Compound 1] (H-[NMeY][dA]GFQPQRF-NH2), the “ED50 value (nmol) (95% confidence interval), analgesic activity” value is reported as 1.2980 (1.2000 to 1.4050) nmol.
C[C@@H](NC(=O)[C@@H](N)Cc1ccc(O)cc1)C(=O)NCC(=O)N(C)[C@@H](Cc1ccccc1)C(=O)N[C@@H](CCC(N)=O)C(=O)N1CCC[C@H]1C(=O)N[C@@H](CCC(N)=O)C(=O)N[C@@H](CCCNC(=N)N)C(=O)N[C@@H](Cc1ccccc1)C(N)=O [Compound 2, Tyr-D-Ala-Gly-NMe-Phe-Gln-Pro-Gln-Arg-Phe-NH2] (H-Y[dA]G[NMeF]QPQRF-NH2) was tested, and the “ED50 value (nmol) (95% confidence interval), analgesic activity” value was 0.3862 (0.3590 to 0.4154) nmol.
With C[C@@H](NC(=O)[C@@H](N)Cc1ccc(O)cc1)C(=O)NCC(=O)N[C@@H](Cc1ccccc1)C(=O)NCC(=O)N1CCC[C@H]1C(=O)N[C@@H](CCC(N)=O)C(=O)N[C@@H](CCCNC(=N)N)C(=O)N[C@@H](Cc1ccccc1)C(N)=O [Compound 3] (H-Y[dA]GFGPQRF-NH2) the “ED50 value (nmol) (95% confidence interval), analgesic activity” value was 0.4172 (0.3798 to 0.4583) nmol.
In the case of CC(C)C[C@H](NC(=O)[C@H](Cc1ccccc1)NC(=O)CNC(=O)[C@@H](C)NC(=O)[C@@H](N)Cc1ccc(O)cc1)C(=O)N1CCC[C@H]1C(=O)N[C@@H](CCC(N)=O)C(=O)N[C@@H](CCCNC(=N)N)C(=O)N[C@@H](Cc1ccccc1)C(N)=O [Compound 4] (H-Y[dA]GFLPQRF-NH2), the “ED50 value (nmol) (95% confidence interval), analgesic activity” value is reported as 0.1865 (0.1509 to 0.2304) nmol.
In the case of CSCC[C@H](NC(=O)[C@H](Cc1ccccc1)NC(=O)CNC(=O)[C@@H](C)NC(=O)[C@@H](N)Cc1ccc(O)cc1)C(=O)N1CCC[C@H]1C(=O)N[C@@H](CCC(N)=O)C(=O)N[C@@H](CCCNC(=N)N)C(=O)N[C@@H](Cc1ccccc1)C(N)=O [Compound 5] (H-Y[dA]GFMPQRF-NH2), the “ED50 value (nmol) (95% confidence interval), analgesic activity” value is reported as 0.2957 (0.2637 to 0.3338) nmol.
CSCC[C@@H](NC(=O)[C@H](Cc1ccccc1)NC(=O)CNC(=O)[C@@H](C)NC(=O)[C@@H](N)Cc1ccc(O)cc1)C(=O)N1CCC[C@H]1C(=O)N[C@@H](CCC(N)=O)C(=O)N[C@@H](CCCNC(=N)N)C(=O)N[C@@H](Cc1ccccc1)C(N)=O [Compound 6, Tyr-D-Ala-Gly-Phe-D-Met-Pro-Gln-Arg-Phe-NH2] (H-Y[dA]GF[dM]PQRF-NH2) was tested, and the “ED50 value (nmol) (95% confidence interval), analgesic activity” value was 0.3986 (0.3716 to 0.4275) nmol.
For CC(C)C[C@@H](NC(=O)[C@H](Cc1ccccc1)NC(=O)CNC(=O)[C@@H](C)NC(=O)[C@@H](N)Cc1ccc(O)cc1)C(=O)N1CCC[C@H]1C(=O)N[C@@H](CCC(N)=O)C(=O)N[C@@H](CCCNC(=N)N)C(=O)N[C@@H](Cc1ccccc1)C(N)=O [Compound 7, Tyr-D-Ala-Gly-Phe-D-Leu-Pro-Gln-Arg-Phe-NH2] (H-Y[dA]GF[dL]PQRF-NH2), the “ED50 value (nmol) (95% confidence interval), analgesic activity” value was 0.4367 (0.3865 to 0.4934) nmol.
For C[C@@H](NC(=O)[C@@H](N)Cc1ccc(O)cc1)C(=O)NCC(=O)N[C@@H](Cc1ccccc1)C(=O)N[C@H](C)C(=O)N1CCC[C@H]1C(=O)N[C@@H](CCC(N)=O)C(=O)N[C@@H](CCCNC(=N)N)C(=O)N[C@@H](Cc1ccccc1)C(N)=O [Compound 8, Tyr-D-Ala-Gly-Phe-D-Ala-Pro-Gln-Arg-Phe-NH2] (H-Y[dA]GF[dA]PQRF-NH2), the “ED50 value (nmol) (95% confidence interval), analgesic activity” value was 0.3361 (0.2864 to 0.3944) nmol.
